One data set concerns primary neurons. In words: LD50 in primary neurons. The conditions noted are these: YES = LD50 ≧ 50 μM in primary neurons. The format is cell-based.
In data set [1] the target is T1, full-length human Cal1 (Homo sapiens (Human), UniProt P07384). The data set can be described thus: Calpain inhibition FRET assay. The format is biochemical. The conditions noted are these: Table 3, 20 min incubation, FRET substrate.
For data set [2], the target named is T1, full-length human Cal1. In words: Calpain inhibition FRET assay. In kind it is biochemical. The conditions noted are these: Table 2; approximate IC50; read-out: Cal I IC50.
The test system of the next data set is Cal I. In words: Relative selectivity for Cal I (E64 = 1.0), Table 2. The format is biochemical. The conditions noted are these: relative to E64 = 1.0.

Read-outs that look alike come from different tables or passages of the source.

T1 sequence (P07384 whole entry): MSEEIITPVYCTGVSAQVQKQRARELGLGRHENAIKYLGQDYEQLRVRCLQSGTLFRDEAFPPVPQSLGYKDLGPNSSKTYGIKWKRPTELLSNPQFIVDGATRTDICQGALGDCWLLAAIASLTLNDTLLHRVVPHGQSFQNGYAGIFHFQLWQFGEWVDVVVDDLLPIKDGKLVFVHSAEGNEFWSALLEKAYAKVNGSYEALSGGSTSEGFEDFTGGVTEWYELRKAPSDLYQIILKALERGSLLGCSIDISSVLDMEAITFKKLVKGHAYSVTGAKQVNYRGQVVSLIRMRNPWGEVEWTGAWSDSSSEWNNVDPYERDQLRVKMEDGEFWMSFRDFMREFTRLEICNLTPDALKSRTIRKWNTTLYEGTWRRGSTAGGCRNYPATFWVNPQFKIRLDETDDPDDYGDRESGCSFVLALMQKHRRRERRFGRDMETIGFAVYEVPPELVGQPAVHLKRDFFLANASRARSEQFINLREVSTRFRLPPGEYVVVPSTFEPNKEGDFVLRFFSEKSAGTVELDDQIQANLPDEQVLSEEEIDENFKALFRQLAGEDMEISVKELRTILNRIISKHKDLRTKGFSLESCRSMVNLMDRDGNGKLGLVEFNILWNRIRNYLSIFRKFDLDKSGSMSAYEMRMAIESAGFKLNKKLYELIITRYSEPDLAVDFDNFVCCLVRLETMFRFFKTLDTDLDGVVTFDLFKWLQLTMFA
T1 sequence (P04632 whole entry partner): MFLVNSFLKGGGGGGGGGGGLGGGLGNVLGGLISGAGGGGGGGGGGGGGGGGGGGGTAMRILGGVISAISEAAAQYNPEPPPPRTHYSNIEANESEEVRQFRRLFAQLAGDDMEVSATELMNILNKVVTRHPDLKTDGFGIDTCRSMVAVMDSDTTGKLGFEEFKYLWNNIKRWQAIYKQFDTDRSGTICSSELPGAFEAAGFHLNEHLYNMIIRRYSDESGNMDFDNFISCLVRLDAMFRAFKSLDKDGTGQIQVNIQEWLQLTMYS

Usually IC50 stands for the midpoint of a concentration-inhibition curve. Regarding `CC(C)C[C@H](NC(=O)[C@H]1O[C@@H]1C(=O)O)C(=O)NCCCCNC(=O)CCCCC1CCSS1` (stereo partly drawn) [Compound 26, (2S,3S)-3-((2S)-1-(4-(5-(1,2-dithiolan-3-yl)pentanamido)butylamino)-4-methyl-1-oxopentan-2-ylcarbamoyl)oxirane-2-carboxylic acid], in the data set with primary neurons, the “LD50 ≧ 50 μM primary neurons” value is recorded as “YES”. Also, the concentration for half-maximal inhibition (IC50) against full-length human Cal1 [1] amounted to 100 nM; on full-length human Cal1 [2] it was 150 nM. Besides, the “Relative selectivity for Cal I E64 = 1.0” value in the data set on Cal I is recorded as 1.6.

In the case of `CC(C)C[C@H](NC(=O)[C@H]1O[C@@H]1C(=O)O)C(=O)NCCCCNS(=O)(=O)c1ccc(F)cc1` [Compound 25, (2S,3S)-3-((S)-1-(4-(4-fluorophenylsulfonamido)butylamino)-4-methyl-1-oxopentan-2-ylcarbamoyl)oxirane-2-carboxylic acid], the “LD50 ≧ 50 μM primary neurons” value in the data set with primary neurons was “YES”. Further, the half-inhibitory concentration (IC50) against full-length human Cal1 [1] worked out at 150 nM; at full-length human Cal1 [2], 100 nM. In addition, the “Relative selectivity for Cal I E64 = 1.0” value in the data set on Cal I amounted to 0.9.

(Values after patent US9403843B2, “Cysteine protease inhibitors and uses thereof” (The Trustees of Columbia University in the City of New York, priority 2012, dated 2016).)
